Test results reported in patent US10189809B2, “SGC stimulators” (Ironwood Pharmaceuticals, Inc., priority 2010, dated 2019).
Read-outs that look alike come from different tables or passages of the source.

Legend:
[1] = target: soluble guanylate cyclase (sGC) (Homo sapiens (Human), UniProt Q02108+Q02153); experiment: sGC-HEK-cGMP assay run with SNP incubation (HEK WC assay); format: cell-based
How it was run: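 HEK293 cells with endogenous sGC were pretreated with 0.5 mM IBMX for 15 min at 37 °C, then exposed to test compound plus sodium nitroprusside for 10 min at 37 °C.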

[2] = target: T1, Human soluble guanylate cyclase enzyme (hsGC) (Homo sapiens (Human), UniProt Q02108+Q02153); experiment: Purified human sGC enzyme synergy assay in the presence of 1 μM sodium nitroprusside (SNP); format: biochemical; settings: for sGC Enzyme (fold increase at 10 μM with SNP): 10 μM compound; for sGC Enzyme (fold increase at 30 μM with SNP): 30 μM compound
How it was run: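 Purified human sGC (5 ng) incubated 30 min at 37 °C with compounds at 10 or 30 μM, 1 μM sodium nitroprusside, 300 μM GTP and 1 mM IBMX in Tris pH 8.0 with MgCl2/DTT. cGMP quantified against a standard curve, and specific activity expressed as fold-change over DMSO control.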

[3] = target: T1, Human soluble guanylate cyclase enzyme (hsGC); experiment: Purified human sGC enzyme activity assay; format: biochemical; settings: for sGC Enzyme (specific activity at 10 μM) / sGC Enzyme (fold increase at 10 μM without SNP): 10 μM compound; for sGC Enzyme (specific activity at 30 μM) / sGC Enzyme (fold increase at 30 μM without SNP) / sGC Enzyme (fold increase at 30 μM): 30 μM compound; for sGC Enzyme (fold increase at 30 μM): without the addition of SNP
How it was run: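 Purified human sGC (5 ng) incubated 30 min at 37° C with compound at 10 or 30 μM final in pH 8.0 Tris with 300 μM GTP, 2 mM MgCl2, 2 mM DTT and 1 mM IBMX, then stopped with cold methanol. cGMP quantified against a standard curve. Specific activity (nmol cGMP/mg sGC/min) expressed as fold-change over DMSO control.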

[4] = read-out: HEK WC Assay (% Emax at 10 uM/with 10 uM SNP)
[5] = read-out: HEK WC Assay (% Emax at 30 uM/with 10 uM SNP)
[6] = read-out: HEK WC Assay (% Emax at 10 μM/with 10 uM SNP)
[7] = read-out: HEK WC Assay (% Emax at 30 μM/with 10 uM SNP)

T1 sequence (Q02153 whole entry): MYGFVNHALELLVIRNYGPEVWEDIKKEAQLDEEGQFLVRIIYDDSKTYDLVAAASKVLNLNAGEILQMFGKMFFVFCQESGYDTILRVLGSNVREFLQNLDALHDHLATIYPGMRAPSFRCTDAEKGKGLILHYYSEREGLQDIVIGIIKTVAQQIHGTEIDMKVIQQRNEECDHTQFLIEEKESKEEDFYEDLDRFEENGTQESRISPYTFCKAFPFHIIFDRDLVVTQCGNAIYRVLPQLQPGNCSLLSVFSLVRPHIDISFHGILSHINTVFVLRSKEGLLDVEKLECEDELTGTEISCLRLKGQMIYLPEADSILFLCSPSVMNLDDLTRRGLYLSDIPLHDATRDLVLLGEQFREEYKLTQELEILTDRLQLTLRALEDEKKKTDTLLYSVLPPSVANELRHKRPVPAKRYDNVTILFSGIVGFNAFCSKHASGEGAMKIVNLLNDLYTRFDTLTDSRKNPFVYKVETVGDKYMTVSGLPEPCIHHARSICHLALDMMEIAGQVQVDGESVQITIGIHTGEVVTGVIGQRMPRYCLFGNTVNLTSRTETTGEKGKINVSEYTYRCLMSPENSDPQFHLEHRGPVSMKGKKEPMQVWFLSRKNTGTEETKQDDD
T1 sequence (Q02108 whole entry): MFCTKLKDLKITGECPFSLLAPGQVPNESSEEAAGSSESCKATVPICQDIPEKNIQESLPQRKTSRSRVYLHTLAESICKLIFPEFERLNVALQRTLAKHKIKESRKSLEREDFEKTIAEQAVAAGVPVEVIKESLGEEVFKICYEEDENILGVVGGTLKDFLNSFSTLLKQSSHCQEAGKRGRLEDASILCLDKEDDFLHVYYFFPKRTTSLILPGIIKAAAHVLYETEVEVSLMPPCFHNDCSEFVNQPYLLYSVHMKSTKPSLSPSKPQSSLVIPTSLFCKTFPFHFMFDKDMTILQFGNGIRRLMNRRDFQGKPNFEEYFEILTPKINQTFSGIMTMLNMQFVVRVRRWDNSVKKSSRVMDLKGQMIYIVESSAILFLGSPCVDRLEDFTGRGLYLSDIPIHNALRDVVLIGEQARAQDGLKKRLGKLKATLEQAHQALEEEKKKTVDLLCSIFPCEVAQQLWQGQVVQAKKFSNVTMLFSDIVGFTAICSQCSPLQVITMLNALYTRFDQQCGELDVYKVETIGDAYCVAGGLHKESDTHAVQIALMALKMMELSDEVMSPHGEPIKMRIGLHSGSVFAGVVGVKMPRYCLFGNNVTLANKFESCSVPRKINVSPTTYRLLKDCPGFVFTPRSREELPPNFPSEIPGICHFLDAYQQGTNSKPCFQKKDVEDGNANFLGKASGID
Sequence of soluble guanylate cyclase (sGC) (Q02153 whole entry): as the sequence (Q02153 whole entry) above
Sequence of soluble guanylate cyclase (sGC) (Q02108 whole entry): as the sequence (Q02108 whole entry) above

Row | SMILES | Emax at 10 µM [1, 4] | Emax at 30 µM [1, 5] | sGC Enzyme (fold increase at 10 μM with SNP) ([2]; with 1 μM SNP) | sGC Enzyme (fold increase at 30 μM with SNP) ([2]; with 1 μM SNP) | sGC Enzyme (specific activity at 10 μM) [3] | sGC Enzyme (fold increase at 10 μM without SNP) [3] | sGC Enzyme (specific activity at 30 μM) [3] | sGC Enzyme (fold increase at 30 μM without SNP) [3] | Emax at 10 µM [1, 6] | Emax at 30 µM [1, 7] | sGC Enzyme (fold increase at 30 μM with SNP) ([2]; with the addition of SNP) | sGC Enzyme (fold increase at 30 μM) [3]
1 | Fc1ccccc1Cn1nc(-c2ccccn2)cc1-c1nnn[nH]1 [Compound I-43] | 0 to 10% | 0 to 10% | A (A = no increase to <2 fold increase) | A (A = no increase to <2 fold increase) | C (C = 100 to <200) | A (A = no increase to <2 fold increase) | C (C = 100 to <200) | A (A = no increase to <2 fold increase) |  |  |  | 
2 | Nc1nc(-c2cc(-c3ccon3)n(Cc3ccccc3F)n2)ncc1C(F)(F)F [Compound I-113] |  |  |  |  |  |  |  |  | 20 to 40% | 40 to 60% | C (C = 5 to <10 fold increase) | A (A = no increase to <2 fold increase)
3 | COC(=O)N(C)c1c(N)nc(-c2cc(-c3ccccn3)n(Cc3ccccc3F)n2)nc1N [Compound I-88] |  |  |  |  |  |  |  |  | 0 to 10% | 0 to 10% | A (A = no increase to <2 fold increase) | A (A = no increase to <2 fold increase)
4 | Fc1ccccc1Cn1nc(-c2ccccn2)cc1C1CCCCC1 [Compound I-48] | 0 to 10% | 0 to 10% | B (B = 2 to <5 fold increase) | C (C = 5 to <10 fold increase) | D (D = 200 to <500) | B (B = 2 to <5 fold increase) | E (E = 500 to <1000) | B (B = 2 to <5 fold increase) |  |  |  | 
5 | Nc1nc(-c2cc(-c3ccon3)n(Cc3ccccc3F)n2)ncc1-c1ccccn1 [Compound I-128] |  |  |  |  |  |  |  |  | 60 to 80% | 40 to 60% | C (C = 5 to <10 fold increase) | B (B = 2 to <5 fold increase)
6 | Cn1c(=O)[nH]c2nc(-c3cc(-c4ncco4)n(Cc4ccccc4F)n3)nc(N)c21 [Compound I-101, 6-amino-2-(1-(2-fluorobenzyl)-5-(oxazol-2-yl)-1H-pyrazol-3-yl)-7-methyl-7H-purin-8(9H)-one] |  |  |  |  |  |  |  |  | 60 to 80% | 20 to 40% | D (D = 10 to <30 fold increase) | B (B = 2 to <5 fold increase)
7 | Nc1nc(-c2cc(-c3ccon3)n(Cc3ccccc3F)n2)ncc1-c1cccnc1 [Compound I-127] |  |  |  |  |  |  |  |  | 60 to 80% | 60 to 80% | D (D = 10 to <30 fold increase) | C (C = 5 to <10 fold increase)
8 | CC(C)c1cc(-c2ccccn2)nn1Cc1ccccc1F [Compound I-47] | 0 to 10% | 0 to 10% | B (B = 2 to <5 fold increase) | B (B = 2 to <5 fold increase) | D (D = 200 to <500) | A (A = no increase to <2 fold increase) | D (D = 200 to <500) | B (B = 2 to <5 fold increase) |  |  |  | 
9 | Fc1ccccc1Cn1nc(-c2ncccn2)cc1C1CC1 [Compound I-90] |  |  |  |  |  |  |  |  | 0 to 10% | 0 to 10% | B (B = 2 to <5 fold increase) | A (A = no increase to <2 fold increase)

Results, then the compound that gave them:

Row | Emax at 10 µM [1, 4] | Emax at 30 µM [1, 5] | sGC Enzyme (fold increase at 10 μM with SNP) ([2]; with 1 μM SNP) | sGC Enzyme (fold increase at 30 μM with SNP) ([2]; with 1 μM SNP) | sGC Enzyme (specific activity at 10 μM) [3] | sGC Enzyme (fold increase at 10 μM without SNP) [3] | sGC Enzyme (specific activity at 30 μM) [3] | sGC Enzyme (fold increase at 30 μM without SNP) [3] | Emax at 10 µM [1, 6] | Emax at 30 µM [1, 7] | sGC Enzyme (fold increase at 30 μM with SNP) ([2]; with the addition of SNP) | sGC Enzyme (fold increase at 30 μM) [3] | SMILES
10 |  |  |  |  |  |  |  |  | 20 to 40% | 20 to 40% | B (B = 2 to <5 fold increase) | A (A = no increase to <2 fold increase) | Nc1nc(-c2cc(-c3ccon3)n(Cc3ccccc3F)n2)ncc1-c1nccs1 [Compound I-108]
11 |  |  |  |  |  |  |  |  | 0 to 10% | 0 to 10% | A (A = no increase to <2 fold increase) | A (A = no increase to <2 fold increase) | Cc1cccc(-c2cc(-c3ncccn3)nn2Cc2ccccc2F)n1 [Compound I-70, 2-(1-(2-fluorobenzyl)-5-(6-methylpyridin-2-yl)-1H-pyrazol-3-yl)pyrimidine]
12 |  |  |  |  |  |  |  |  | 20 to 40% | 40 to 60% | B (B = 2 to <5 fold increase) | A (A = no increase to <2 fold increase) | CC(C)(O)c1cnc(-c2cc(-c3ccon3)n(Cc3ccccc3F)n2)nc1O [Compound I-133]
13 | 0 to 10% | 0 to 10% | B (B = 2 to <5 fold increase) | C (C = 5 to <10 fold increase) | B (B = 50 to <100) | B (B = 2 to <5 fold increase) | C (C = 100 to <200) | B (B = 2 to <5 fold increase) |  |  |  |  | Fc1ccccc1Cn1nc(-c2ncccn2)cc1-c1ccccc1F [Compound I-59]
14 | 10 to 20% | 20 to 40% | B (B = 2 to <5 fold increase) | B (B = 2 to <5 fold increase) |  | A (A = no increase to <2 fold increase) |  | B (B = 2 to <5 fold increase) |  |  |  |  | Cc1cc(-c2ccccn2)nn1Cc1ccccc1F [Compound I-55]
15 |  |  |  |  |  |  |  |  | 60 to 80% | 40 to 60% | C (C = 5 to <10 fold increase) | B (B = 2 to <5 fold increase) | Cc1cc(N)nc(-c2cc(-c3ccon3)n(Cc3ccccc3F)n2)n1 [Compound I-111]
16 | 10 to 20% | 10 to 20% | B (B = 2 to <5 fold increase) | C (C = 5 to <10 fold increase) | D (D = 200 to <500) | B (B = 2 to <5 fold increase) | D (D = 200 to <500) | B (B = 2 to <5 fold increase) |  |  |  |  | Fc1ccccc1Cn1nc(-c2ccccn2)cc1-c1cccs1 [Compound I-35]
17 | 0 to 10% | 0 to 10% | A (A = no increase to <2 fold increase) | A (A = no increase to <2 fold increase) | B (B = 50 to <100) | A (A = no increase to <2 fold increase) | B (B = 50 to <100) | A (A = no increase to <2 fold increase) |  |  |  |  | Cc1ccc(-c2cc(-c3ccccn3)nn2Cc2ccccc2F)nc1 [Compound I-56]
18 | 0 to 10% | 10 to 20% | B (B = 2 to <5 fold increase) | C (C = 5 to <10 fold increase) | C (C = 100 to <200) | A (A = no increase to <2 fold increase) | D (D = 200 to <500) | A (A = no increase to <2 fold increase) |  |  |  |  | COc1cccc(-c2cc(-c3ccccn3)nn2Cc2ccccc2F)n1 [Compound I-25, 2-(1-(2-fluorobenzyl)-3-(pyridin-2-yl)-1H-pyrazol-5-yl)-6-methoxypyridine]
19 |  |  |  |  |  |  |  |  | 20 to 40% | 60 to 80% | D (D = 10 to <30 fold increase) | C (C = 5 to <10 fold increase) | Nc1nc(-c2cc(-c3ccon3)n(Cc3ccccc3F)n2)ncc1-c1ccccc1 [Compound I-122]
